# PMC3280276 (PLoS ONE, 2012)
# Test system: C-terminal peptide […]
# Type: binding
substance,measurement,value
saporin,interaction with C-terminal peptide […],did not observe any measurable interactions
